Results taken from paper PMC10257182, “Discovery of senolytics using machine learning” (Nature Communications, 2023).
Where “and” joins values, the source holds several entries; their conditions need not be identical. Identical values can stand only once. Like-named read-outs stand apart in the source and are kept apart here.

What was measured:
Assay type in all cases: cell-based, human
control A549 cells = experiment: Cell survival assay using crystal violet staining, TIS, control cells; settings: Control (no etoposide) cells; Control DMSO = 100; single replicates (SUP FIG 9E)
Experimental: (§1) Equal numbers of control and senescent cells were plated at high density on multiwell plates just before senolytic treatment addition. After treatment, cells were fixed on 0.5% glutaraldehyde (Sigma) and then dried at RT overnight. Then, wells were stained with crystal violet solution for 3 h, washed and dried. Once they were completely dry, the plates were scanned for records. Quantification was performed extracting the staining with 1% acetic acid and measuring the final solution by absorbance at 595 nm. […]
(§2) cells per condition is indicated. (d) Cell survival assay measuring the senolytic effect in lung cancer senescent cells. The panels show a representative crystal violet staining of tissue culture dishes of confluent A549 cells treated with 100 μM etoposide and control A549 cells, all treated with 10 nM oleandrin, ouabain and periplocin, and DMSO as vehicle control for 72 hours as indicated. (e) Graph representing the cell survival by quantification of the crystal violet staining of the experiment described in (d), as described in Methods. Data represented as individual datapoints, and bars and error bars representing the mean ± SEM of 14 independent experiments. Statistical analysis was performed using a one-way ANOVA (Tukey’s test) for multiple comparisons. […]
(§3) Scale bars represent 100 μm. ns = not significant, * = p < 0.05, ** = p < 0.01, *** = p < 0.001, **** = p < 0.0001. Source data are provided as a Source Data file.

[1] = system: control IMR90 ER:STOP cells; experiment: Cell survival assay using crystal violet staining, OIS, control cells; set-up: % Cell Survival: concentration or dose not given beside the values; settings: for % Cell Survival / Mean (cell survival, Tukey test details): FIG 4B, ER:STOP cells; for % Cell Survival: individual replicate values, ER:STOP DMSO = 100; for Mean (cell survival, Tukey test details): mean of n=12 as fraction of STOP DMSO = 1
Experimental: (§4) Equal numbers of control and senescent cells were plated at high density on multiwell plates just before senolytic treatment addition. After treatment, cells were fixed on 0.5% glutaraldehyde (Sigma) and then dried at RT overnight. Then, wells were stained with crystal violet solution for 3 h, washed and dried. Once they were completely dry, the plates were scanned for records. Quantification was performed extracting the staining with 1% acetic acid and measuring the final solution by absorbance at 595 nm.

[2] = system: IMR90 cells at passage 27 (replicative senescence); experiment: Cell survival assay using crystal violet staining, replicative senescence; set-up: % Cell Survival: concentration or dose not given beside the values; settings: FIG 4C; Replicative Senescence (RS) cells; individual replicate values, Control DMSO = 100
Excerpt: (§5) IMR90 (CCL-186) human foetal lung fibroblasts and A549 (CCL-185) human lung adenocarcinoma cells were obtained from the American Type Culture Collection (ATCC, Manassas, VA). The cell lines were confirmed to be mycoplasma negative (Lonza MycoAlert, cat #LT07-118). IMR90 ER:RAS is a derivative of IMR90 cells expressing a switchable version of oncogenic H-Ras[84]. IMR90 ER:RAS and A549 cells were maintained in Dulbecco’s Modified Eagle Medium (DMEM, ThermoFisher) supplemented with foetal bovine serum (10%), L-glutamine (2 mM, ThermoFisher), and antibiotic-antimycotic solution (1%, ThermoFisher) and incubated under standard tissue culture conditions (37 °C and 5% CO2). For induction of the senescent phenotype, IMR90-ER:RAS cells were cultured in hydroxytamoxifen (4-OHT) (Sigma) added media at 100 nM final concentration. IMR90 were kept in culture for over 27 passages for replicative senescence. Cells were tested for mycoplasma on a regular basis.
as §4

[3] = system: A549 cells treated with 100 μM etoposide; experiment: Cell survival assay using crystal violet staining, TIS, senescent cells; settings: Etoposide-treated (senescent) cells; Control DMSO = 100; single replicates (SUP FIG 9E)
Experimental: as §1, §2, §3

[4] = system: senescent IMR90 ER:RAS cells; experiment: Cell survival assay using crystal violet staining, OIS, senescent cells; set-up: % Cell Survival: concentration or dose not given beside the values; settings: for % Cell Survival / Mean (cell survival, Tukey test details): FIG 4B, ER:RAS cells; for % Cell Survival: individual replicate values, ER:STOP DMSO = 100; for Mean (cell survival, Tukey test details): mean of n=12 as fraction of STOP DMSO = 1
Experimental: as §4

[5] = system: proliferating IMR90 cells; experiment: BrdU incorporation proliferation assay; settings: for % BrdU positive cells, mean (Test details, Mean 2) / % BrdU positive cells: IMR90 cells; for % BrdU positive cells, mean (Test details, Mean 2): n 4; for % BrdU positive cells: single replicates (SUP FIG 9G); for proliferation by BrdU incorporation, in words: proliferating IMR90 cells, 10 nM
Experimental: 5-bromo-2′-deoxyuridine (BrdU) incorporation was used to measure the number of cells actively replicating DNA. Cells were incubated with 10 μM BrdU (85811, Sigma) for 18 h. After that, cells were fixed with 4% Paraformaldehyde, permeabilised, blocked and then stained for immunofluorescence using BrdU primary antibody (555627 BD Pharmigen), Alexa fluor secondary for detection, and DAPI staining for cell counting. Acquisition was done with a Nikon TI2 microscope and analysis was performed with ImageJ for cell counting.

[6] = system: caspase 3/7 activity in senescent IMR90 ER:RAS cells; experiment: Caspase 3/7 activity assay; set-up: Caspase 3/7 activity time course (SUP FIG 9F) / Caspase 3/7 activity time course (SUP FIG 9F exp not shown): unit not given here; settings: for Caspase 3/7 activity time course (SUP FIG 9F) / Caspase 3/7 activity time course (SUP FIG 9F exp not shown): ER:RAS cells; for Caspase 3/7 activity time course (SUP FIG 9F exp not shown): second experiment, data not shown; for Casp3/7 activity (percentage of green fluorescent cells): ER:RAS, 100 nM 4OHT, 10 nM compound, 35 h
Experimental: IMR90 ER:STOP and IMR90 ER:RAS cells were cultured with 100 nM 4-OHT for 5 days. Cell were then plated in a multiwell plate at high density. Once cells were attached, Caspase 3/7 probe (C10423 Invitrogen) and senolytic drugs, oleandrin, ouabain and periplocin at 10 nM, were added to the media and cultured for 36 h. Time lapse imaging was recorded every hour on a Leica AF6500 microscope (10x). ImageJ 1.53k was used for positive cell counting.

[7] = system: A549 cells treated with 100 μM etoposide; experiment: Cell survival assay using crystal violet staining, TIS, senescent cells; settings: fraction of Control DMSO = 1, n 15
[8] = system: IMR90 cells at passage 13 (control); settings: FIG 4C; Young (control) cells; mean of n=12 as fraction of Young DMSO = 1
Excerpt: as §5, §4

Structure (SMILES)	% Cell Survival (control A549 cells)	% Cell Survival [1]	Mean (cell survival, Tukey test details) [1]	% Cell Survival [2]	% Cell Survival [3]	% Cell Survival [4]	Mean (cell survival, Tukey test details) [4]	% BrdU positive cells, mean (Test details, Mean 2) [5]	% BrdU positive cells [5]	proliferation by BrdU incorporation, in words [5]	Caspase 3/7 activity time course (SUP FIG 9F) ([6]; 01:00:00 hours)	Caspase 3/7 activity time course (SUP FIG 9F exp not shown) ([6]; 01:00:00 hours)	Caspase 3/7 activity time course (SUP FIG 9F) ([6]; 05:00:00 hours)	Caspase 3/7 activity time course (SUP FIG 9F exp not shown) ([6]; 05:00:00 hours)	Caspase 3/7 activity time course (SUP FIG 9F) ([6]; 10:00:00 hours)	Caspase 3/7 activity time course (SUP FIG 9F exp not shown) ([6]; 10:00:00 hours)	Caspase 3/7 activity time course (SUP FIG 9F) ([6]; 15:00:00 hours)	Caspase 3/7 activity time course (SUP FIG 9F exp not shown) ([6]; 15:00:00 hours)	Caspase 3/7 activity time course (SUP FIG 9F) ([6]; 20:00:00 hours)	Caspase 3/7 activity time course (SUP FIG 9F exp not shown) ([6]; 20:00:00 hours)	also measured
C[C@@H]1O[C@@H](O[C@H]2C[C@@H](O)[C@]3(CO)[C@H]4[C@H](O)C[C@]5(C)[C@@H](C6=CC(=O)OC6)CC[C@]5(O)[C@@H]4CC[C@]3(O)C2)[C@H](O)[C@H](O)[C@H]1O [Ouabain, ouabain, reference compound]	87.7% and 109.8% and 97.7% and 103.7% and 127.7% and 98.4% and 119.9% and 122.1% and 126.3% and 124.6% and 125% and 96.4%	100.7% and 91.1% and 79.5% and 88.8% and 108.2% and 92.7% and 95.3% and 93.9% and 97.9% and 80.1% and 99.8% and 95%	0.9358	94.8% and 97.2% and 95.8% and 90.6% and 106.9% and 98.6% and 108.7% and 109.7% and 103.6% and 106.2% and 99.7%	83.2% and 99.9% and 99.3% and 62.7% and 92.6% and 102.5% and 88.1% and 123.1% and 123.9% and 68.2% and 105.6% and 95.4% and 114.5% and 91.7%	99% and 102.3% and 88.5% and 93% and 111.6% and 79.7% and 87.5% and 77.4% and 104.8% and 84.4% and 78.3% and 72%	0.8988	73.84%	69.37% and 73.68% and 73.67% and 78.62%	none of the cardiac glycosides induced unwanted changes in proliferation	1.9	0.1	1.9	0.95	2.6	1.45	2.6	1.55	3	2.7	cytotoxic activity (crystal violet), in words [1]: no cytotoxic activity; cytotoxic activity / cellular content (crystal violet), in words [4]: no cytotoxic activity; Caspase 3/7 activity time course (SUP FIG 9F) ([6]; 1 day, 1:00:00): 4; Caspase 3/7 activity time course (SUP FIG 9F exp not shown) ([6]; 1 day, 1:00:00): 4.6; Caspase 3/7 activity time course (SUP FIG 9F) ([6]; 1 day, 6:00:00): 3.9; Caspase 3/7 activity time course (SUP FIG 9F exp not shown) ([6]; 1 day, 6:00:00): 7.55; Caspase 3/7 activity time course (SUP FIG 9F) ([6]; 1 day, 11:00:00): 3.9; Caspase 3/7 activity time course (SUP FIG 9F exp not shown) ([6]; 1 day, 11:00:00): 8.25; Casp3/7 activity (percentage of green fluorescent cells) [6]: 6.4%; Cell survival, mean (Test details, Mean 2) [7]: 0.9058
CO[C@H]1C[C@H](O[C@H]2CC[C@]3(C)[C@H]4CC[C@]5(C)[C@@H](C6=CC(=O)OC6)CC[C@]5(O)[C@@H]4CC[C@]3(O)C2)O[C@H](C)[C@H]1O[C@@H]1O[C@H](CO)[C@@H](O)[C@H](O)[C@H]1O [Periplocin, periplocin]	90% and 112.2% and 107.2% and 111% and 106.6% and 104.9% and 102.9% and 93.8% and 98.6% and 110.6% and 109.7% and 108.4% and 94.2% and 93.9%	103.3% and 93.7% and 87.3% and 112.7% and 104.8% and 100.7% and 97.3% and 88.4% and 100.5% and 85.6% and 102.9% and 98.7%	0.9799	127.6% and 99.2% and 95.4% and 100.9% and 115.7% and 129.6% and 84.9% and 94.7% and 133.6% and 88.7% and 125.7% and 118.8%	78.5% and 85.2% and 87.1% and 66.7% and 80.4% and 88.8% and 86.5% and 120% and 114.9% and 68.8% and 88.3% and 87.7% and 111.9% and 81.2%	119.4% and 103.3% and 90.2% and 103.2% and 120.1% and 97.6% and 95% and 114.9% and 93.3% and 103% and 92.4%	1.03	68.52%	63.29% and 64.13% and 67.53% and 79.11%	none of the cardiac glycosides induced unwanted changes in proliferation	1.7	0.05	2	0.2	2.7	1.2	2.7	1.2	3	2.55	cytotoxic activity (crystal violet), in words ([1]; IMR90-ER:STOP proliferating control cells, 10 nM, 72 h): no cytotoxic activity; cytotoxic activity / cellular content (crystal violet), in words ([4]; IMR90-ER:RAS cells undergoing OIS, 10 nM, 72 h): no cytotoxic activity; Caspase 3/7 activity time course (SUP FIG 9F) ([6]; 1 day, 1:00:00): 3.5; Caspase 3/7 activity time course (SUP FIG 9F exp not shown) ([6]; 1 day, 1:00:00): 3.9; Caspase 3/7 activity time course (SUP FIG 9F) ([6]; 1 day, 6:00:00): 4; Caspase 3/7 activity time course (SUP FIG 9F exp not shown) ([6]; 1 day, 6:00:00): 6.15; Caspase 3/7 activity time course (SUP FIG 9F) ([6]; 1 day, 11:00:00): 4.8; Caspase 3/7 activity time course (SUP FIG 9F exp not shown) ([6]; 1 day, 11:00:00): 8.35; Casp3/7 activity (percentage of green fluorescent cells) [6]: 6.2%; Mean (cell survival, Tukey test details) [8]: 0.8921; Cell survival, mean (Test details, Mean 2) [7]: 0.873
